# Columns and labels:
# [1] = Solid stability test of the polymorph A (XRPD); format: physicochemical
# Protocol: According to the “Guidelines for the Stability Test of Active Pharmaceutical Ingredients and Preparations” (Chinese Pharmacopoeia, 2015, Part IV, General Chapter 9001), the stability of the polymorph A of the compound of formula (I) was investigated under the conditions of high temperature (60° C., open), high humidity (room temperature/relative humidity of 92.5%, open), high temperature and high humidity (40° C., 75% RH; 60° C., 75% RH) and strong light (total illumination of 1.2×10^6 Lux·hr/near ultraviolet 200 w·hr/m^2, sealed).
# 15 mg of the polymorph A of the compound of formula (I) was weighed, placed on the bottom of a glass sample bottle, and spread into a thin layer. The sample placed under high temperature and high humidity was sealed with aluminum foil paper, and some small holes were pierced in the aluminum foil paper to ensure that the sample can fully contact with the ambient air; The samples placed under strong light conditions were sealed with screw caps. The samples placed under different conditions were sampled and tested (XRPD) on day 5 and day 10. The test results were compared with the initial test results on day 0.
# [2] = tested on: human multiple myeloma cells MM.1S xenograft (CDX); test: In vivo pharmacodynamic study in MM.1S xenograft (CDX) model
# Protocol: CB-17 SCID mice, female, 6 weeks to 8 weeks old, weight of about 17 grams to 20 grams. The mice were kept in a special pathogen-free environment and in a single ventilated cage (4 mice per cage). All cages, bedding and water were disinfected before use. All animals had free access to standard certified commercial laboratory food. A total of 64 mice purchased from Beijing Vital River Co., Ltd. were used for study. 0.2 mL of 5×10^6 MM.1S cells were subcutaneously inoculated on the right back of each mouse for tumor growth. The experiment was performed when the average tumor volume reached about 100 cubic millimeters to 150 cubic millimeters.
# In vivo selective experiments were performed on CB-17 SCID mice implanted subcutaneously with human multiple myeloma cells MM.1S xenograft (CDX). The polymorph A of the compound of formula (I) was formulated with a mixed solution of 5% of dimethyl sulfoxide and 95% of 10% hydroxypropyl-β-cyclodextrin into a formulation to be administered orally for 5 days and stopped for 2 days. Ixazomib was administered once on the first day and fourth day of each week, respectively. The tumor volume was measured with a two-dimensional caliper twice a week, and the volume was measured in cubic millimeters and calculated by the following formula: V=0.5 a*b^2, in which a and b were the long diameter and short diameter of the tumor, respectively. The anti-tumor efficacy was determined by dividing the average tumor increase volume of animals treated with the compound by the average tumor increase volume of untreated animals.
# [3] = Solid stability test of the polymorph A (XRPD); format: physicochemical; conditions: High temperature and high humidity (40° C., 75% RH; 60° C., 75% RH), 1 month
structure (smiles),measurement,setting,value
O=C(NO)c1ccc(CNC(=O)c2ccc(C3(c4ccc(F)cc4)CCCO3)cn2)cc1 (centres unmarked),Polymorph,"[1]; Day 0, initial (XRPD)",Polymorph A
same,Polymorph,"[1]; High humidity (room temperature/relative humidity of 92.5%, open), Day 5",Polymorph A
same,Polymorph,"[1]; High humidity (room temperature/relative humidity of 92.5%, open), Day 10",Polymorph A
same,Polymorph,"[1]; High temperature (60° C., open), Day 5",Polymorph A
same,Polymorph,"[1]; High temperature (60° C., open), Day 10",Polymorph A
same,Polymorph,"[1]; High temperature and high humidity (40° C., 75% RH; 60° C., 75% RH), Day 10",Polymorph A
same,Polymorph,"[1]; Strong light (5000 lx, sealed), Day 5",Polymorph A
same,Polymorph,"[1]; Strong light (5000 lx, sealed), Day 10",Polymorph A
same,Solid stability (conclusion),"[1]; high temperature, high humidity, high temperature and high humidity, and strong light",good stability
same,Stability (general statement),"[1]; light, heat and humidity, technical effects statement","stable, less affected by light, heat and humidity"
same,Tumor volume,"[2]; 75 mg/kg oral, administration for 5 days and drug withdrawal for 2 days, Day 0",134 mm^3
same,Tumor volume,"[2]; 75 mg/kg oral, administration for 5 days and drug withdrawal for 2 days, Day 3",165 mm^3
same,Tumor volume,"[2]; 75 mg/kg oral, administration for 5 days and drug withdrawal for 2 days, Day 5",319 mm^3
same,Tumor volume,"[2]; 75 mg/kg oral, administration for 5 days and drug withdrawal for 2 days, Day 7",466 mm^3
same,Tumor volume,"[2]; 75 mg/kg oral, administration for 5 days and drug withdrawal for 2 days, Day 10",753 mm^3
same,Tumor volume,"[2]; 75 mg/kg oral, administration for 5 days and drug withdrawal for 2 days, Day 12",1006 mm^3
same,Tumor volume,"[2]; 75 mg/kg oral, administration for 5 days and drug withdrawal for 2 days, Day 14",1532 mm^3
same,Efficacy in vivo (general statement),[2]; technical effects statement,good efficacy in vivo
same,Polymorph,[3],Polymorph A
"CC(C)C[C@H](NC(=O)CNC(=O)c1cc(Cl)ccc1Cl)B(O)O [Ixazomib, reference compound]",Tumor volume,"[2]; Ixazomib 4 mg/kg, twice a week, Day 0",134 mm^3
same,Tumor volume,"[2]; Ixazomib 4 mg/kg, twice a week, Day 3",157 mm^3
same,Tumor volume,"[2]; Ixazomib 4 mg/kg, twice a week, Day 5",193 mm^3
same,Tumor volume,"[2]; Ixazomib 4 mg/kg, twice a week, Day 7",331 mm^3
same,Tumor volume,"[2]; Ixazomib 4 mg/kg, twice a week, Day 10",634 mm^3
same,Tumor volume,"[2]; Ixazomib 4 mg/kg, twice a week, Day 12",835 mm^3
same,Tumor volume,"[2]; Ixazomib 4 mg/kg, twice a week, Day 14",1257 mm^3

# Source: patent US11345682B2, “Polymorph of HDAC6-selective inhibitor and application thereof” (CSTONE PHARMACEUTICALS (SUZHOU) CO., LTD., priority 2018, dated 2022)
